Assay results taken from patent publication US20200016088A1, “NANOFORMULATIONS OF NEUROPEPTIDES AND METHOD OF MAKING SAME” (THE CORPORATION OF MERCER UNIVERSITY, priority 2018, published 2020).

Key:
[1] = in vivo; cited from earlier work
[2] = OT in CSF and plasma by ELISA after intranasal administration; type: in vivo, Swiss-Webster mice; conditions: 2 hours after intranasal administration, 50 ug OT
Protocol: On sample collection days, animals were administered a 50 μl solution of OT alone or encapsulated in nanoparticles (containing 50 ug of OT) intranasally and placed in separate cages for 120 minutes.
CSF samples were collected from the cisterna magna as previously published by (Liu and Duff 2008) with little modifications. Briefly, the mice were anaesthetized with isoflurane and maintained under anesthesia at a flow rate of 1.5 ml/min during the surgical process. The mice were then placed prone in the stereotaxic instrument in direct contact with a heating pad with their heads firmly secured. The skin on the head and neck was shaved and the surgical site wiped with 10% povidone iodine followed by 70% ethanol. An incision was made and the muscles under the skin separated by blunt dissection under a dissecting microscope until the dura of the cisterna magna were exposed (a glistening white reverse triangle). The mice were then repositioned so the head formed a near 135° angle to the body. […]
All collected CSF and Plasma samples were treated identically and assayed at the same time with the same batch of reagents. […] The optical density was read immediately at 405 nm with correction at 570 nm using BioTek HT synergy spectrophotometer at 540 nm (Model S1AFR BioTek; Winooski, Vt.). The mean optical density of the blank wells was subtracted from all readings.

[3] = within one hour of intranasal delivery (Leng and Ludwig 2016); cited from earlier work
[4] = system: macrophage (RAW 246.7) cell line; assay: Cytotoxicity by MTT assay; type: cell-based; conditions: relative to negative control
Excerpt: (See Examples 10 through 16 hereinbelow). As confirmed in past research, the nanoparticle formulations have shown to be both safe and non-toxic in non-human primates. In primates, all parameters related to liver toxicity (such as SGOT, SGPT) and kidney toxicity (such as serum creatinine, […]) were normal after repeated nanoparticulate administrations when compared to the control group. […] For confirmation of a potential innate inflammatory response, nitric oxide assays are an important tool. For the assay, dendritic cells are plated in a well plate and exposed to the formulation. After 16 hours, using reagents, a stronger color change indicates a higher production of nitric oxide by these antigen-presenting cells in response to the formulation's antigenicity. […] This indicates minimal if not negligible immunogenicity of the formulation. […] Likewise, cytotoxicity of blank nanoparticles was assessed by MTT (3-(4,5-Dimethylthiazol-2-yl)-2,5-diphenyltetrazolium bromide) assay in a macrophage (RAW 246.7) cell line.
The cytotoxicity of blank and peptide loaded nanoparticles was assessed by the MTT (3-(4,5-Dimethylthiazol-2-yl)-2,5-diphenyltetrazolium bromide) assay. […] Absorbance in each well was measured at 570 nm in a microtiter plate reader. The formation of a colored product quantified by measuring absorbance can be correlated to the percentage of living cells.

BEND3 cells = assay: BBB transport across BEND3 cell barrier in Ussing chamber; type: in vitro ADME, mouse; conditions: 1, 2, 3 and 4 hours
Excerpt: To generate a cellular model of the BBB, BEND3 cells were obtained from American Type Culture Collection (ATCC: 2299). BEND3 cells are endothelial cells that form tight barriers through the formation of transcellular tight junctions (Montesano et al. 1990; Sikorski et al. 1993; Williams et al. 1988), and these barriers mimic the barrier properties of the BBB (He et al. 2010; Watanabe et al. 2013). Their endothelial nature has been confirmed by the expression of von Willebrand factor and the uptake of fluorescently labeled low density lipoprotein. BEND3 cells were cultured in Dulbecco's Modified Eagle Medium (DMEM) supplemented with 15% FBS and 1% (100 U/ml Penicillin and 100 μg/ml Streptomycin). […]
To study the transport of nanoparticle formulations across the BEND3 BBB model barrier, a complete Ussing chamber system with a multichannel voltage-current clamp and the EasyMount Ussing chambers (Model VCC MC8; P2300; Physiologic Instruments Inc.; San Diego, Calif.) was used. […] To subtract the background resistance, a blank cell-culture insert was placed onto the slider and used to compensate for any fluid or blank membrane resistance by dialing off any reading to zero. […] Before the start of the experiment, all cell barrier preparations were evaluated for resistance properties and current flow using the acquire and analyze software. […]

For CC[C@H](C)[C@@H]1NC(=O)[C@H](Cc2ccc(O)cc2)NC(=O)[C@@H](N)CSSC[C@@H](C(=O)N2CCC[C@H]2C(=O)N[C@@H](CC(C)C)C(=O)NCC(N)=O)NC(=O)[C@H](CC(N)=O)NC(=O)[C@H](CCC(N)=O)NC1=O [OT, oxytocin], the “half-life in the blood” value [1] is given as “on the order of minutes”, the “proportion of OT in CSF versus the total in CSF plus plasma” value [2] is given as 4.2% and the “calculated maximum transfer of a dose to the brain” value [3] is given as 0.005%.
benzalkonium chloride gave a cell viability ([4]; after 24 hours) of 21.44% and a cell viability ([4]; after 48 hours) of 20.089%.
With Cc1cc(-c2ccc(/N=N/c3c(S(=O)(=O)O)cc4cc(S(=O)(=O)O)cc(N)c4c3O)c(C)c2)ccc1/N=N/c1c(S(=O)(=O)O)cc2cc(S(=O)(=O)O)cc(N)c2c1O [trypan blue] the “transport across the barrier, presence versus absence of the cell barrier” value (BEND3 cells) was “significant reduction”.
